This note sets out measurements from US20150173351A1, “MICROCAPSULE” (priority 2012, published 2015).

This data set is described as follows: Retention rate of the agriculturally active ingredient after xenon light irradiation (photodegradation). The class given is physicochemical. The settings on record: active ingredient alone, air-dried on glass petri dish; xenon light (290 nm cutoff), 0.68 W/m^2 at 340 nm, 8 hours, 35° C.; weight % relative to 5 mg. How it is done:
A method for the calculation of a retention rate of the agriculturally active ingredient defined above is more specifically as follows. First, 250 mg of the agriculturally active ingredient is dissolved in 50 mL of a solvent such as acetone, which can sufficiently dissolve the agriculturally active ingredient and also has high volatility, and 1 mL of the solution is added to a glass petri dish having a diameter of 6 cm using a one-mark pipette, spread entirely over the petri dish, and then air-dried at room temperature. The petri dish is covered with a lid made of quartz glass and then set in a weathering tester (manufactured by Q-Lab Corporation under the trade name of Q-SUN Xenon Accelerated Weathering Tester, Model Xe-3) equipped with a borosilicate filter (manufactured by Q-Lab Corporation under the trade name of Daylight-BB Optical Filter) attached thereto. After irradiation with xenon light under the conditions of an intensity at 340 nm of 0.68 W/m^2 and a temperature of 35° C. (35° C. as measured by an insulated black panel thermometer) for 8 hours, the amount of the agriculturally active ingredient remaining on the petri dish is determined by a known determination method such as high-performance liquid chromatography. It is possible to determine a retention rate by calculating as the weight percentage relative to 5 mg of the agriculturally active ingredient used above. The above agriculturally active ingredient used in the microcapsule of the present invention may be any of an insecticidally active component, a fungicidally active component, and a herbicidally active component, and is not particularly limited. The agriculturally active ingredient includes fenpyrazamine, allethrin, and prallethrin. […] It is preferred to use an agriculturally active ingredient which is solid at normal temperature (25° C.), for example fenpyrazamine.
As for `C#CCC1=C(C)C(OC(=O)C2C(C=C(C)C)C2(C)C)CC1=O` (stereo not drawn) [prallethrin], the “retention rate after irradiation with xenon light” value (“retention rate after irradiation” for short) worked out at 6.4%.
`C=CCSC(=O)n1c(N)c(-c2ccccc2C)c(=O)n1C(C)C` [fenpyrazamine]: the “retention rate after irradiation” value is 28.1%.
`C=CCC1=C(C)C(OC(=O)C2C(C=C(C)C)C2(C)C)CC1=O` (stereo not drawn) [allethrin]: the “retention rate after irradiation” value stood at 3.3%.
